# Tests used:
# [1] = test system: Ph+ALL cell strain (KOPN57bi); assay: Apoptosis by active caspase-3 antibody, flow cytometry; format: cell-based, human; conditions: LMD 20 μM, IM 0.5 μM, 3 days, compared with no addition
# Description: After fixation of cell membrane, the cells were stained with anti-active caspase-3 antibodies and positive cells were investigated by using flow cytometry.
# [2] = test system: Ph+ALL cell strain (KOPN57bi); assay: Cell death by Annexin V/propidium iodide (PI) double staining, flow cytometry; conditions: Homo sapiens, 72 h, read-out: viable cell fraction (Annexin V-, PI-)
# Description: At an early stage of cell death, specific phospholipids are exposed on the cell membrane. By labeling Annexin V, which strongly binds to the phospholipid, with a fluorescent dye, rate of the early cell death can be detected by using flow cytometry. On the other hand, at a late stage of cell death, cell membrane/nuclear membrane is partially destroyed.
# [3] = test system: Ph+ALL cell strain (KOPN57bi); assay: Viable cells by alamar blue method; format: cell-based, human; conditions: LMD 20 μM, IM 0.5 μM, 3 days
# [4] = test system: Ph+ALL cell strain (KOPN57bi); assay: Immunodeficient mice transplanted with Ph+ALL cells, in vivo; design: species or system NOD/SCID/γ null mouse (NOG mouse); conditions: NOG mouse; LMD 30 mg/kg/day, IM 150 mg/kg/day, PO; two weeks after administration; saline approximately 30%
# Description: NOD/SCID/γ null mouse (NOG mouse) is widely used for research as immunodeficient mouse capable of efficiently transplanting human hematopoietic stem cells or tumor cells. A mouse transplanted with human leukemia cells is a system that can study therapeutic effect of a drug on human leukemia cells in the mouse body (in vivo). […] The mice were observed over time. Proportion of Ph+ALL cells in mononuclear cell fraction was investigated by using flow cytometry after isolating mononuclear cell fraction from mouse bone marrow blood two weeks after administration and staining with anti-human CD45 antibody binding to human leukemia cells.
# [5] = test system: Ph+ALL cell strain (KOPN57bi); assay: Cell turnover by PI staining, flow cytometry; format: cell-based, human; conditions: LMD 20 μM, IM 0.5 μM, 3 days
# Protocol: When PI staining is performed under the condition that the cell membrane/nuclear membrane is fixed with a drug and PI can freely bind to intranuclear DNA, staining intensity changes depending on amount of DNA. Thus, cell turnover stop phase (G0/G1 phase, 2N), DNA synthesis phase (S phase, 2N→4N), pre-cell division phase (G2 phase, 4N) and cell division phase (M phase, 4N→2N) can be distinguished each other by using flow cytometry. In addition, when the cell death is induced by apoptosis, a cell fraction that DNA amount decreases by DNA cleavage (less than 2N) from the G0/G1 phase is detected.
# [6] = test system: Ph+ALL strain KOPN57bi; assay: H^3-thymidine uptake method, Ph+ALL strain KOPN57bi; format: cell-based; conditions: Homo sapiens, 144 h, read-out: % inhibition of H^3-thymidine uptake
# Description: Effect in the combination was recognized from 2 days in the culture, and % inhibition reached to 90% or more on 3 days in the culture.
# [7] = test system: IKZF1 protein; assay: Change of IKZF1 expression by western blotting; format: cell-based, human; conditions: KOPN57bi; LMD 20 μM, IM 0.5 nM; 24 hours
Structure (SMILES),active caspase-3 positive rate [1],viability at 20 µM [2],number of viable cells (alamar blue) [3],proportion of Ph+ALL cells (human CD45 positive) in bone marrow mononuclear cell fraction [4],S phase fraction [5],apoptotic fraction (less than 2N) [5],inhibition at 20 µM [6],expression of dominant-negative isoform (Ik 6) [7]
"Nc1cccc2c1CN(C1CCC(=O)NC1=O)C2=O (racemic) [LMD, (RS)-3-(4-amino-1-oxo-3H-isoindol-2-yl) piperidine-2,6-dione]",slightly increased,~60%,mildly decreased,2.1%,decrease,mild increase,~80%,–
"Cc1ccc(NC(=O)c2ccc(CN3CCN(C)CC3)cc2)cc1Nc1nccc(-c2cccnc2)n1 [IM, 4-(4-Methylpiperazin-1-ylmethyl)-N-[4-methyl-3-(4-pyridin-3-ylpyrimidin-2-ylamino)benzamide monomethanesulfonate]",slightly increased,–,mildly decreased,–,–,–,–,No change
